Here are results for one molecule from paper PMC5403251 (Neuropharmacology, 2016).

Molecules are shown by their SMILES.

Broadly, the ED50 is the midpoint of the dose-response relation. A word on the Ki: it is the equilibrium dissociation constant of an inhibitor or competing ligand from its target. Read a low Ki as higher affinity.

In assay [1] the test system is C57BL/6J mice. As to the kind of experiment: Discrete-trials temporal discrimination task. It is filed as in vivo, mouse.
Assay [2] concerns C57BL/6J mice. As to the kind of experiment: Head twitch response. It is filed as in vivo, mouse.
For another assay, the target named is T1, human 5-HT2C receptor (Homo sapiens, UniProt P28335).
T1 sequence (P28335 33-458): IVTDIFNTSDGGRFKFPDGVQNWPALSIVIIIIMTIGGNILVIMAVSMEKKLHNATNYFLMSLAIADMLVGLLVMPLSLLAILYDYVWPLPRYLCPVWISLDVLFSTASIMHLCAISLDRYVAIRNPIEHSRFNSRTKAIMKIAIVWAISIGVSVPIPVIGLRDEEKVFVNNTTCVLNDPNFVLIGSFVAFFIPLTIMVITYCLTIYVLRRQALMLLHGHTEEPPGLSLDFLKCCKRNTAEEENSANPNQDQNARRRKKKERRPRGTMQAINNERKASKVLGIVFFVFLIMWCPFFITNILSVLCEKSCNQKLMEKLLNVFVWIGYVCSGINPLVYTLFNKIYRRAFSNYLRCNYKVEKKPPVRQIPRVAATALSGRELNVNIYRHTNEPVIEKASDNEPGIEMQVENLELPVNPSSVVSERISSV
As to the kind of experiment: NIMH PDSP competitive radioligand binding, [3H]mesulergine.

The next assay deals with T2, α2C (Homo sapiens, UniProt P18825).
T2 sequence (P18825 1-462): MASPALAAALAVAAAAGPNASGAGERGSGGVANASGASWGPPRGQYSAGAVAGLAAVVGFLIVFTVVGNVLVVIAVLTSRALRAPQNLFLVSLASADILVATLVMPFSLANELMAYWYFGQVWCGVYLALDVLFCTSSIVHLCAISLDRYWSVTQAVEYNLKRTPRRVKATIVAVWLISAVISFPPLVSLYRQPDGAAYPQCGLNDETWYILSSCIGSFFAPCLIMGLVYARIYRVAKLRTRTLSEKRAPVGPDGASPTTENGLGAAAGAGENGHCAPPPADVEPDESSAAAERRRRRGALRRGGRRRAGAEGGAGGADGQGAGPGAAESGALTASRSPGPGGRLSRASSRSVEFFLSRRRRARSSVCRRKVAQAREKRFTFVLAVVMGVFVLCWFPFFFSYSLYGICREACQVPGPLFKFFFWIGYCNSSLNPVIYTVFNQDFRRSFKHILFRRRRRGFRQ
As to the kind of experiment: NIMH PDSP binding screen.

The next assay addresses 5-HT6 (Homo sapiens, UniProt P50406). As to the kind of experiment: NIMH PDSP binding screen.
The target in another assay is T3, sigma-2 (Rattus norvegicus, UniProt Q5U3Y7).
T3 sequence (Q5U3Y7 1-176): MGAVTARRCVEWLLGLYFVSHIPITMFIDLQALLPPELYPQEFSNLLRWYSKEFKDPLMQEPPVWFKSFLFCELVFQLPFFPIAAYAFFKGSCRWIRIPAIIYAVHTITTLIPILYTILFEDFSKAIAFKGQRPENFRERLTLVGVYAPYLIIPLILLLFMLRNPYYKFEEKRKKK
As to the kind of experiment: NIMH PDSP binding screen.

The target in the next assay is T4, α2A (Homo sapiens, UniProt P08913).
T4 sequence (P08913 1-465): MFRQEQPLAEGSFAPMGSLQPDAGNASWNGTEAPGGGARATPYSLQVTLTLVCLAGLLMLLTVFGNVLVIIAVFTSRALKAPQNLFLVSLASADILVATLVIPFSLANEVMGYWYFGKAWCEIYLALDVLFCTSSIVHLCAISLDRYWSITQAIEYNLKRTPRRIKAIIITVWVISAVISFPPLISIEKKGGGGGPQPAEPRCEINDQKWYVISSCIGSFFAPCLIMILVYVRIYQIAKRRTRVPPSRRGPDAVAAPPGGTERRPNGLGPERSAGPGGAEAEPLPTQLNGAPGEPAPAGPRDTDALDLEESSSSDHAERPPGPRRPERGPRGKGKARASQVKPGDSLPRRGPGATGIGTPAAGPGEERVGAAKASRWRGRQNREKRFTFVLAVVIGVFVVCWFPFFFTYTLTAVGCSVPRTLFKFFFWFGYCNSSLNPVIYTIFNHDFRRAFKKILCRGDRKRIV
As to the kind of experiment: NIMH PDSP binding screen.

The target in the next assay is T5, α2B (Homo sapiens, UniProt P18089).
T5 sequence (P18089 1-450): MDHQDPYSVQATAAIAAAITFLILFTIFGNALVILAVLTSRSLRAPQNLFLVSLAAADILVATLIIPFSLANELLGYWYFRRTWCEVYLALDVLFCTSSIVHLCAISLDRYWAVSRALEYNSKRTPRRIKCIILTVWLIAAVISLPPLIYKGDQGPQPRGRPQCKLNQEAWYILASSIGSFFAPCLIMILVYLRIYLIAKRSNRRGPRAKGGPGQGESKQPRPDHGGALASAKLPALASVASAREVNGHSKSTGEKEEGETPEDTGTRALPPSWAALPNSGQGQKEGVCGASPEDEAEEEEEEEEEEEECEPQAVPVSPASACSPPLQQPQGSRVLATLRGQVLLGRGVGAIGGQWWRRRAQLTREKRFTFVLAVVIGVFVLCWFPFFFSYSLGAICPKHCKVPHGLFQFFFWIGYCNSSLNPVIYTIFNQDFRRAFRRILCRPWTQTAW
As to the kind of experiment: NIMH PDSP binding screen.

The next assay deals with histaminergic H2 (Homo sapiens, UniProt P25021). As to the kind of experiment: NIMH PDSP binding screen.
The target in another assay is β2 (Homo sapiens, UniProt P07550). As to the kind of experiment: NIMH PDSP binding screen.
The next assay deals with NIH Swiss mice. The following applies: mediated by the 5-HT2A receptor, ref Fantegrossi et al., 2014; cited from earlier work.
The mark [3] stands for this setting: 25CN-NBOH 1 mg/kg SC, 5 min before session.
Where [4] appears, read: 25CN-NBOH 6 mg/kg SC, 5 min before session.

Sequence of 5-HT6 (P50406 whole entry, species assumed): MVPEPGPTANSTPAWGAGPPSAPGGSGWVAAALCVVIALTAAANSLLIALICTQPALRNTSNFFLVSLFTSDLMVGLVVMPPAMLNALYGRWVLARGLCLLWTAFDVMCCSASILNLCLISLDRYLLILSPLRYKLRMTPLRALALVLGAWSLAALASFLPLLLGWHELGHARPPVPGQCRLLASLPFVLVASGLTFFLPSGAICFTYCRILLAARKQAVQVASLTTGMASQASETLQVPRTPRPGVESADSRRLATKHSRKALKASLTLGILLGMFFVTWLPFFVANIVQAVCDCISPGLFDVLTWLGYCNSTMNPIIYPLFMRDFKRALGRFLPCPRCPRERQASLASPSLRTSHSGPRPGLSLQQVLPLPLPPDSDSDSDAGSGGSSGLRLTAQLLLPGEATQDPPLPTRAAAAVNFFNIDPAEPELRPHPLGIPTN
Sequence of β2 (P07550 whole entry): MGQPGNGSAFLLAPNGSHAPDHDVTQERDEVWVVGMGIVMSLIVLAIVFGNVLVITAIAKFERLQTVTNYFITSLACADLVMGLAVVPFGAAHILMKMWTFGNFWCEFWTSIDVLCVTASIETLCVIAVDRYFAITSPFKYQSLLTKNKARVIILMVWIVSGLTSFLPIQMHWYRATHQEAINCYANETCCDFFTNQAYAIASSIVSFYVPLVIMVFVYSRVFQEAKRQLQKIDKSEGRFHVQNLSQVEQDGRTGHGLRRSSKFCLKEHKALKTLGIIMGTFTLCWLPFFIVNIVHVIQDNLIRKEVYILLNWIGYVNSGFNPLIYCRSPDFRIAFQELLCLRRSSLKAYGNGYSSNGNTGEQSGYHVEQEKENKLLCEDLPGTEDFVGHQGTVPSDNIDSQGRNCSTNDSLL
Sequence of histaminergic H2 (P25021 whole entry): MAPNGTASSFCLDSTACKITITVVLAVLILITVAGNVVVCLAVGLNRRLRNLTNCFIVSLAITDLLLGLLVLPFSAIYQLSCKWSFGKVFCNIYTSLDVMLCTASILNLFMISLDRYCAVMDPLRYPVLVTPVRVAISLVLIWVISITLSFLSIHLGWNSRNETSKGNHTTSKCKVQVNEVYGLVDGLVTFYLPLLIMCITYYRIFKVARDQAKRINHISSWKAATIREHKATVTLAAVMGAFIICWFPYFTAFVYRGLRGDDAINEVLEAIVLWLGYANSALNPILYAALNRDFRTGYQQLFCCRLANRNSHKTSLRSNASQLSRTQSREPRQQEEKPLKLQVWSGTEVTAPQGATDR

As to `COc1cc(CCNCc2ccccc2O)c(OC)cc1C#N.Cl` [25CN-NBOH, N-(2-hydroxybenzyl)-2,5-dimethoxy-4-cyanophenethylamine hydrochloride], the Difference limen worked out at 1.09 ± 0.11 s with C57BL/6J mice [1] (setting [3]) and 1.65 ± 0.12 s in the assay with C57BL/6J mice [1] (setting [4]). In addition, the “Slope (ε)” value in the assay with C57BL/6J mice [1] (setting [3]) was found to be 1.098±0.125. Moreover, the values for the T50 in the assay on C57BL/6J mice [1] (setting [3]) and with C57BL/6J mice [1] (setting [4]) were 6.33 ± 0.20 s and 7.63 ± 0.24 s, respectively. Further, the Trials completed came out at 182.4±3.7 with C57BL/6J mice [1] (setting [3]) and 134.5±8.4 with C57BL/6J mice [1] (setting [4]). The Weber fraction with C57BL/6J mice [1] (25CN-NBOH 1 mg/kg SC, 5 min before session, mean±SEM) is recorded as 0.175±0.020; with C57BL/6J mice [1] (setting [4]), 0.217±0.015. Also, the entries for the “%B responding (proportional choice of lever B)” value with C57BL/6J mice [1] (25CN-NBOH 6 mg/kg SC) and with C57BL/6J mice [1] (25CN-NBOH 0.3–3 mg/kg SC) were “reduced %B responding at long stimulus intervals” and “did not significantly alter %B responding”, respectively. The “Correct responding during the 10.5 s-trials” value in the assay with C57BL/6J mice [1] (after drug treatment that reduced %B responding at long stimulus intervals) is “more than 80%”. For the same molecule, the median effective dose (ED50) with C57BL/6J mice [2] (Mus musculus, sc, 0.5 h, read-out: HTR ED50) was 0.36 mg/kg. Also, the “Dose producing the maximal HTR response” value with C57BL/6J mice [2] (SC, 30-min session) was 3 mg/kg. In addition, the Ki worked out at 49.8 ± 7.4 nM at human 5-HT2C receptor; 543 nM at α2C; 573 nM at 5-HT6; 575 nM on sigma-2; 803 nM on α2A; 1230 nM on α2B. In addition, the Ki on histaminergic H2 is 1510 nM; at β2, 1610 nM. The “Head twitch response (HTR)” value in the assay on NIH Swiss mice is listed as “induce the head twitch response”.
